Our source for the fluorescence lifetime values is the Deep4Chem optical property database.

The data set can be described thus: solvent given as SMILES.

Each structure is given as a SMILES string.

For the compound `C(#Cc1cc2ccc3cccc4ccc(c1)c2c34)c1ccccc1`, the fluorescence lifetime (in Cc1ccccc1) was 71 ns.
Take `CC1=CC(c2ccc3cc(N(C)C)ccc3c2)=[O+][B-](F)(F)O1`: the fluorescence lifetime was 3.56 ns (in C1CCOC1); 1.02 ns (in CC#N); 2.72 ns (in CC(C)=O); 1.47 ns (in CS(C)=O); 4.08 ns (in Cc1ccccc1); 3.46 ns (in ClC(Cl)Cl). The same compound gave a fluorescence lifetime (in ClCCl) of 3.69 ns.
For the setting “in Cc1ccccc1”, `c1cc2c3c(c1)-c1cccc4cccc(c14)B3c1cccc3cccc-2c13` displayed a fluorescence lifetime of 6.31 ns.
With `COc1cc2cc(OC)c(-c3ccc([N+](=O)[O-])cc3)cc2cc1-c1ccc([N+](=O)[O-])cc1`, the fluorescence lifetime amounted to 0.62 ns (in ClC(Cl)Cl) and 0.53 ns (in ClCCl).
`Nc1cc(N)cc(-c2nc3ccccc3s2)c1` showed a fluorescence lifetime (in C1CCCCC1) of 4.63 ns; a fluorescence lifetime (in C1COCCO1) of 4.09 ns; a fluorescence lifetime (in CC#N) of 4.14 ns; a fluorescence lifetime (in CC(C)O) of 6.4 ns; a fluorescence lifetime (in CCOC(C)=O) of 3.84 ns; a fluorescence lifetime (in CCOCC) of 3.2 ns. For the same compound, the fluorescence lifetime (in CO) turned out to be 2.07 ns and the fluorescence lifetime (in O) is 1.32 ns.
The compound `CCCCC(CC)CN1C(=O)c2cc(Oc3ccc(C(C)(C)C)cc3)c3c4c(Cl)cc5c6c(cc(Cl)c(c7c(Oc8ccc(C(C)(C)C)cc8)cc(c2c37)C1=O)c64)C(=O)N(c1c(C(C)C)cccc1C(C)C)C5=O` (stereo not given) returned a fluorescence lifetime (in Cc1ccccc1) of 6.73 ns.
Consider `Cc1ccc(N(c2ccccc2)c2ccc3ccc4c(N(c5ccccc5)c5ccc(C)cc5)ccc5ccc2c3c54)cc1`, for which the fluorescence lifetime (in ClCCl) was determined as 6.2 ns.
Turning to `CCCCC(CC)COc1ccc2nc(-c3ccc(-c4cccs4)s3)sc2c1` (stereo not given), the fluorescence lifetime (in ClCCl) is 0.42 ns.
Take `COc1ccc2c(c1)-c1ccccc1C2=O`: the fluorescence lifetime by setting is: (in C1CCCCC1) 5.3 ns; (in CC#N) 14 ns; (in CCO) 1.1 ns.
As to `CN(C)c1ccc(/C=C/C=C2\CC/C(=C\c3ccc(N(C)C)cc3)C2=O)cc1`, the fluorescence lifetime came out at 0.42 ns (in C1CCOC1); 0.91 ns (in CC#N); 1.15 ns (in CC(C)=O); 1.24 ns (in CC(C)O); 1.25 ns (in CCCCO); 0.63 ns (in CCCCOC(C)=O). For the same compound, the fluorescence lifetime by setting is: (in CCCO) 1.13 ns; (in CCO) 0.82 ns; (in CCOC(=O)c1ccccc1) 0.83 ns; (in CCOC(C)=O) 0.71 ns; (in CCOCC) 0.31 ns; (in CN(C)C=O) 1.32 ns. In addition, the fluorescence lifetime worked out at 0.3 ns (in CO); 1.4 ns (in CS(C)=O); 0.36 ns (in Cc1ccccc1); 0.29 ns (in ClC(Cl)(Cl)Cl); 0.98 ns (in ClC(Cl)Cl); 1.13 ns (in ClCCl). In addition, the fluorescence lifetime by setting is: (in Clc1ccccc1Cl) 0.83 ns; (in S=C=S) 0.43 ns; (in c1ccccc1) 0.38 ns; (in c1ccncc1) 1.26 ns.
In the case of `N#Cc1ccc2cc[nH]c2c1`, the fluorescence lifetime by setting is: (in C1CCOC1) 3.7 ns; (in C1COCCO1) 3.9 ns; (in CC#N) 3.8 ns; (in CC(C)O) 3.7 ns; (in CCO) 3.7 ns; (in CO) 3.5 ns. Further, the fluorescence lifetime is 4.3 ns (in CS(C)=O); 4.2 ns (in NC=O); 0.6 ns (in O); 0.8 ns (in OCC(F)(F)F); 1.1 ns (in [2H]OC([2H])([2H])C(F)(F)F); 0.8 ns (in [2H]O[2H]).
`O=C(O)c1cccc2c(=O)c3ccccc3[nH]c12`: the fluorescence lifetime (in O) worked out at 3.1 ns.
As to `CCCCCCN1C(=O)c2cc(-c3ccc(-n4c5ccccc5c5ccccc54)cc3)c(-c3ccc(-n4c5ccccc5c5ccccc54)cc3)cc2C1=O`, the fluorescence lifetime (in ClC(Cl)Cl) came out at 11.2 ns and the fluorescence lifetime (in c1ccc2c(c1)c1ccccc1n2-c1ccc(-c2ccc(-n3c4ccccc4c4ccccc43)cc2)cc1) was 10 ns.
Turning to `COC(=O)C([NH3+])Cc1ccc2oc(-c3ccncc3)nc2c1` (stereo not given), the fluorescence lifetime is 3.12 ns (in CC1CCCCC1), 6.09 ns (in CC#N), 0.742 ns (in CO) and 0.999 ns (in O).
Turning to `Clc1ncc(-c2c3ccccc3c(-c3cnc(Cl)nc3)c3ccccc23)cn1`, the fluorescence lifetime (in CCO) is 2.1 ns and the fluorescence lifetime (in ClCCl) worked out at 6.2 ns.
In the case of `N#Cc1ccc(C2=CC3=c4cc(-c5ccc(C#N)cc5)c5nc(C(F)(F)C(F)(F)C(F)(F)F)nc6c(-c7ccc(C#N)cc7)cc(c4c65)C4=CC(c5ccc(C#N)cc5)=C5N=C(C(F)(F)C(F)(F)C(F)(F)F)N=C2C5C43)cc1` (stereo not given), for the setting “in C1CCOC1”, the fluorescence lifetime came out at 2.8 ns.
In the case of `Cc1cccc(C)c1/C=C/c1nc(N2CCOCC2)c2c([n+]1[O-])CCCC2`, the fluorescence lifetime (in ClCCl) amounted to 9.1 ns.
On to `COc1cc2cc(/C=C/c3ccc(/C=C/c4ccc(/C=C(\C#N)C(=O)O)cc4)cc3)c(=O)oc2cc1OC`, for which, under “in CC#N”, the fluorescence lifetime was found to be 2.3 ns.
Turning to `COc1c2ccccc2c(OC)c2c1c1cc(C)ccc1n2C`, the fluorescence lifetime (in C1CCCCC1) was 24.6 ns, the fluorescence lifetime (in CC#N) was found to be 31.1 ns, the fluorescence lifetime (in CO) was 29.8 ns and the fluorescence lifetime (in ClCCl) came to 27.6 ns.
For the compound `CCCCCCCCCCCCCCCCN(CCCCCCCCCCCCCCCC)c1ccc(/C=C/c2cc[n+](Cc3cc(C[n+]4ccc(/C=C/c5ccc(N(CCCCCCCCCCCCCCCC)CCCCCCCCCCCCCCCC)cc5)cc4)cc(C[n+]4ccc(/C=C/c5ccc(N(CCCCCCCCCCCCCCCC)CCCCCCCCCCCCCCCC)cc5)cc4)c3)cc2)cc1`, the fluorescence lifetime (in CCCCCCCCO) was determined as 0.8 ns; the fluorescence lifetime (in CCO) is 0.17 ns; the fluorescence lifetime (in CO) was 0.11 ns; the fluorescence lifetime (in ClC(Cl)Cl) was determined as 0.92 ns; the fluorescence lifetime (in ClCCl) was found to be 0.74 ns.
`O=C(O)c1ccc(C(=O)O)c2cc3ccccc3cc12`: the fluorescence lifetime runs as follows: (in C1CCOC1) 19.2 ns; (in CN(C)C=O) 12.5 ns.
In turn, `COc1ccc(C(=Cc2ccc(/C=C(\C#N)c3ccc([N+](=O)[O-])cc3)cc2)c2ccc(OC)cc2)cc1` had a fluorescence lifetime (in C1CCOC1) of 1.4 ns.
`O=c1c2ccccc2[nH]c2ccccc12` registered a fluorescence lifetime (in CS(C)=O) of 9.1 ns.
Take `CC(=O)[B-]1(C(C)=O)OC(c2ccc3ccccc3c2)=CC(c2ccc3ccccc3c2)=[O+]1`: the fluorescence lifetime was determined as 5.5 ns (in CC#N) and 1.1 ns (in ClC(Cl)(Cl)Cl).
As for `Cc1cc(-c2ccccc2)cc(C)[o+]1`, the fluorescence lifetime is, setting by setting: (in CC#N) 12.1 ns; (in ClCCl) 0.78 ns.
The compound `N#Cc1ccc(-n2cccc2)cc1` returned a fluorescence lifetime (in CC#N) of 8.2 ns, a fluorescence lifetime (in CCCCCC) of 2.42 ns, a fluorescence lifetime (in CCOCC) of 3.8 ns and a fluorescence lifetime (in ClCCl) of 3.1 ns.
In the case of `c1ccc(-c2ccc(-c3ccc(N(c4ccccc4)c4ccccc4)cc3)c3nsnc23)cc1`, the fluorescence lifetime worked out at 7.95 ns (in C1CCOC1), 3.58 ns (in CC(C)=O), 6.77 ns (in CCCCCC) and 7.46 ns (in CCOCC).
In turn, `CC(C)c1cc(C(C)C)c(B2c3cc(N4c5ccccc5Oc5ccccc54)ccc3N(c3ccccc3)c3ccc(N4c5ccccc5Oc5ccccc54)cc32)c(C(C)C)c1` displayed a fluorescence lifetime (in c1cc(-c2cccc(-n3c4ccccc4c4ccccc43)c2)cc(-n2c3ccccc3c3ccccc32)c1) of 54 ns.
For `CC1=[N+]2C(=C(c3ccc(C(=C(c4ccccc4)c4ccccc4)c4ccccc4)cc3)c3ccc(/C=C/c4ccc(C(=C(c5ccccc5)c5ccccc5)c5ccccc5)cc4)n3[B-]2(F)F)C=C1`, where the note is “in C1CCOC1”, the fluorescence lifetime is 3.5 ns.
Take `O=C1c2ccc3c4ccc5c6c(ccc(c7ccc(c2c37)C(=O)N1c1ccncc1)c64)C(=O)N(c1ccncc1)C5=O`: the fluorescence lifetime is, setting by setting: (in C1CCOC1) 1.92 ns; (in C1COCCO1) 3.27 ns; (in CC(C)=O) 2.9 ns; (in CC(C)O) 1.74 ns; (in CCCCO) 1.85 ns; (in CCO) 0.77 ns. Also, the fluorescence lifetime reads like this: (in CCOC(C)=O) 1.34 ns; (in CN(C)C=O) 1.69 ns; (in CO) 0.79 ns; (in CS(C)=O) 0.22 ns; (in ClC(Cl)(Cl)Cl) 3.75 ns; (in ClC(Cl)Cl) 3.74 ns.
As to `CCCCCCCCCCCCCCCCOc1cc(C#Cc2ccc3ccccc3c2)c(OCCCCCCCCCCCCCCCC)cc1C#Cc1ccc(C=C(C#N)C#N)cc1`, the fluorescence lifetime amounted to 2.82 ns (in Brc1ccccc1); 1.92 ns (in C1CCCCC1); 0.98 ns (in C1CCOC1); 3.1 ns (in C1COCCO1); 1.97 ns (in CCCCCC); 0.62 ns (in CCCCCCCCO). This compound also registered a fluorescence lifetime (in CCCCOCCCC) of 2.73 ns; a fluorescence lifetime (in CCOC(C)=O) of 1.05 ns; a fluorescence lifetime (in CCOCC) of 3.33 ns; a fluorescence lifetime (in Cc1ccccc1) of 2.53 ns; a fluorescence lifetime (in ClC(Cl)(Cl)Cl) of 1.94 ns; a fluorescence lifetime (in ClC(Cl)Cl) of 2.26 ns. For the same compound, the fluorescence lifetime (in ClCCl) is 0.63 ns.
Under “in C1CCOC1”, `O=C1/C(=C2\Nc3cc4ccc5cccc6ccc(c3C2=O)c4c56)Nc2cc3ccc4cccc5ccc(c21)c3c45` returned a fluorescence lifetime of 0.42 ns.
In the case of `COc1cc2c(cc1-c1ccsc1)Cc1c3c(c4c(c1-2)-c1cc(OC)c(-c2ccsc2)cc1C4)C(=O)N(CCC(C)C)C3=O`, under “in C1CCOC1”, the fluorescence lifetime was 3.42 ns.
On to `CCn1c2ccsc2c2c3nsnc3c3c4sccc4n(CC)c3c21`, for which the fluorescence lifetime is, setting by setting: (in C1CCOC1) 23.7 ns; (in CCOC(C)=O) 24.2 ns; (in CN(C)C=O) 22.1 ns; (in Cc1ccccc1) 19.4 ns; (in ClCCl) 16.6 ns.
As to `CC1=CC(C)=[N+]2C1=C(c1ccc(I)cc1)c1c(C)cc(C)n1[B-]2(Oc1ccc(Cl)cc1)Oc1ccc(Cl)cc1`, where the note is “in ClC(Cl)Cl”, the fluorescence lifetime was 0.37 ns.
In the case of `C/C=C/c1ccc(OC)c(OC)c1`, the fluorescence lifetime came out at 4 ns (in CC#N) and 3.7 ns (in CCCCCC).
Consider `CCN(CC)c1ccc(/N=N/c2nc3ccc(Br)cc3s2)cc1`, for which the fluorescence lifetime is 3.03 ns (in CC#N) and 2.75 ns (in ClCCl).
